Assay [1] relates to Karpas422 target cells. The assay can be described thus: Re-challenge RTCC assay, Karpas 422. Format: cell-based, human. The conditions noted are these: last re-challenge. The method, then:
OCI-LY-19 and Karpas422 target cells stably expressing firefly luciferase were plated in a Costar 6 well plate in T Cell Media (TCM). PBMCs previously isolated and cryopreserved from 2 Leukopak donors were thawed and Pan T cells were isolated (as described earlier). […] The plates were incubated for 4 days for OCI-LY-19 and 5 days for Karpas 422 cells. At the end of incubation, the killing of target cells was determined using the luminescence signal. The absolute T cell counts from each antibody treated condition was also determined. For the next round of rechallenge, it was ensured that the killing of target cells was equivalent across various antibody conditions. […] Additionally, a dose titration RTCC at a E:T of 1:1 and a concentration range of 2 nM-0.000001 nM was set-up using T cells from the different antibody treated conditions with a 4 day incubation used for each cell line. The killing of target cells was determined using the luminescence signal to generate dose response curves. At the end of the challenge, the above process was repeated once more for Karpas 422 and twice more for OCI-LY-19 cells.

The test system of assay [2] is T cells. The assay can be described thus: TBM and BBM mediated T cell proliferation (Example 20). The class given is cell-based, human. The conditions noted are these: in the presence of OCI-LY-19 and Toledo cells. The method, then:
Briefly, OCI-LY-19, Karpas422, and Toledo target cells stably expressing firefly luciferase were plated in a 96 well plate in T Cell Media (TCM) (RPMI-1640, ThermoFisher Scientific, Cat #11875-085), 10% FBS (Seradigm, Cat #1500-500), 1% L-Glutamine (Thermo Fisher Scientific, Cat #25830-081), 1% Non Essential Amino Acids (Thermo Fisher Scientific, Cat #11140-050), 1% Pen/Strep (Thermo Fisher Scientific, Cat #15070063), 1% HEPES (Thermo Fisher Scientific, Cat #15630080), Sodium Pyruvate (Thermo Fisher Scientific, Cat #11360-070), 0.1% Beta-mercaptoethanol (Thermo Fisher Scientific, Cat #21985-023)]. PBMCs previously isolated and cryopreserved from 2 Leukopak donors were thawed and Pan T cells were isolated (as described earlier). Isolated T cells were labelled with 5 μM Cell Trace Violet (CTV) (Thermo Fisher Scientific, Cat #C34557) following the manufacturer's protocol and were co-cultured with target cells at an E:T ratio of 1:3. A dilution series of CD3med TSP1, CD3hi TSP1, CD3hi BSP1, CD3hi TSP1C, and blinatumomab ranging from 2.5 nM-0.0006 nM was added to cells and the plates were incubated in a 5% CO2, 37° C. incubator for 96 hrs. […]

Take “blinatumomab: bispecific T cell engager, or BiTE, that binds to both CD19 and CD3 but lacks an Fc domain [reference compound]”: the maximum lysis result in assay [1] was “higher maximum lysis than CD3hi TSP1”. The “T cell proliferation, potency compared between constructs” value in assay [2] is “most potent T cell proliferation”.

These data come from US12221481B2, “CD19 binding molecules and uses thereof” (Novartis AG, priority 2019, dated 2025).
